Laboratory results: ChEMBL document CHEMBL1201862, “PubChem BioAssay data set” (2004)
Active and inactive are the calls of the source.

Legend:
[1] = biological target: T1, Nuclear receptor subfamily 0 group B member 1 (Homo sapiens, UniProt P51843); format: functional, cell-based;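 also: HEK293T cells transfected with SF-1 and DAX-1 plus StAR promoter luciferase reporter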
T1 sequence (P51843 whole entry): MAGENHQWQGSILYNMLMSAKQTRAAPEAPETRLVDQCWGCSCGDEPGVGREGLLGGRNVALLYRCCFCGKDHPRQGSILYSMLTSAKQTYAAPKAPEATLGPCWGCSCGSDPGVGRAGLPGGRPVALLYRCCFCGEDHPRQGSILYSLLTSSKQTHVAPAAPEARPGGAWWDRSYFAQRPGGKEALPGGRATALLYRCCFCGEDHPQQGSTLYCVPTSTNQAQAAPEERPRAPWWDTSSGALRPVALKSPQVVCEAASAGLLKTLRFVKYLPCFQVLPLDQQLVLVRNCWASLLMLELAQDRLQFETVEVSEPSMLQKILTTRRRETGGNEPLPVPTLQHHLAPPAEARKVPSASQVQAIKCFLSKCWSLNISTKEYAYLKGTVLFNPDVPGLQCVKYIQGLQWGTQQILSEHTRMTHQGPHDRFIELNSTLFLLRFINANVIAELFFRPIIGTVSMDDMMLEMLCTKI

[2] = Luminescence Cell-Based Dose Retest to Confirm Inhibitors of Cancer Stem Cells. [Related pubchem assays (depositor defined):AID2717, AID2721]; format: functional; settings: Homo sapiens
cells [3] = format: functional, cell-based
[4] = biological target: T2, Fructose-bisphosphate aldolase (Mycobacterium tuberculosis, UniProt P9WQA3); assay: Fluorescence-based biochemical high throughput dose response assay for inhibitors of the fructose-bisphosphate aldolase (FBA) of M. tuberculosis.; format: functional
T2 sequence (P9WQA3 whole entry): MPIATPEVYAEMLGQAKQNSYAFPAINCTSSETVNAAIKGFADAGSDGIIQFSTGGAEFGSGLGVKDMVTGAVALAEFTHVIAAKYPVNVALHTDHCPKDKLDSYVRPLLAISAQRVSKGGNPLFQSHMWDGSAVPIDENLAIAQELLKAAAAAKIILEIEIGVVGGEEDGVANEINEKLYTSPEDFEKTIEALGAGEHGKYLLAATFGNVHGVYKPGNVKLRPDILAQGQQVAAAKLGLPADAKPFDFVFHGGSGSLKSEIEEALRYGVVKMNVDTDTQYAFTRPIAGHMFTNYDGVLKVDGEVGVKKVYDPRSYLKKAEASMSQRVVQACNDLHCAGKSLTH

Vero = assay: Vero cell toxicity, dose response, cytotoxicity control, plate reader, cherry-pick samples (AID 687020); format: functional, cell-based; settings: Chlorocebus sabaeus
[5] = biological target: Nuclear receptor subfamily 5 group A member 2 (Homo sapiens, UniProt O00482); format: functional, cell-based;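 also: HEK293T cells transfected with LRH-1 and a StAR promoter luciferase reporter; potency for inhibitors that lower LRH-1 driven reporter light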
Steroidogenic factor 1 = Steroidogenic factor 1 (Homo sapiens, UniProt Q13285); assay: Counterscreen for inverse agonists of the liver receptor homolog-1 (LRH-1; NR5A2): Luminescence-based cell-based high throughput dose response assay to identify inverse agonists of the Steroidogenic Factor 1 Nuclear Receptor (SF1; NR5A1).; format: functional
[6] = StAR promoter reporter inhibition counter-screen, dose response, counter-screen for LRH-1 inverse agonist project, cell-based, luminescence, luciferase reporter (AID 651969); format: functional
[7] = growth suppression of PTEN-null colon cells, dose response, cell-based, HCT116 PTEN knockout (AID 1047); format: functional;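 also: HCT116 colon tumor cells with PTEN knocked out; cells exposed to compound for 60 hours before readout; potency for loss of cell viability measured by luminescence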
[8] = HEp-2 cell cytotoxicity, dose response, cytotoxicity control for RSV inhibitor project, HTS (AID 2410); format: functional; settings: human respiratory syncytial virus
Cytochrome P450 2C9 = Cytochrome P450 2C9 (Homo sapiens, UniProt P11712)
[9] = biological target: T3, Sentrin-specific protease 1 (Homo sapiens, UniProt Q9P0U3); assay: Dose response confirmation of small molecule inhibitors of the catalytic domain of the SUMO protease, SENP1 in a FRET assay.; format: functional; settings: read-out: IC50_Mean
T3 sequence (Q9P0U3 whole entry): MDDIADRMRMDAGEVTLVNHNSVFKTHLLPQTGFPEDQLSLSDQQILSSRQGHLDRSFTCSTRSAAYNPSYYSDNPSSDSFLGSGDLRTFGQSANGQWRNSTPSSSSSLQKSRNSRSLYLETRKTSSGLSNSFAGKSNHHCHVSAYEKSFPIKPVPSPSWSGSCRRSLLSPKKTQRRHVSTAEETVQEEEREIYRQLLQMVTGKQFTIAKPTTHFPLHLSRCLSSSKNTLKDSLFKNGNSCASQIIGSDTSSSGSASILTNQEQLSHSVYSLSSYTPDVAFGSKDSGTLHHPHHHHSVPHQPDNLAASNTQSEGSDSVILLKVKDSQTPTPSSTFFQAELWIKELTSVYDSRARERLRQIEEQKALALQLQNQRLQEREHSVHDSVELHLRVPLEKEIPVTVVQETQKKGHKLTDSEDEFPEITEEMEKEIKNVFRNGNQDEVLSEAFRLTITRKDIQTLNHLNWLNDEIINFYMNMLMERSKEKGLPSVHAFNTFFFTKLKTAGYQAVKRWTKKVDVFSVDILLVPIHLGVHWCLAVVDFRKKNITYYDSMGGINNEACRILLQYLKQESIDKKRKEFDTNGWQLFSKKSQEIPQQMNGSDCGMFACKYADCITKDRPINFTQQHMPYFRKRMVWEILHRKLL

cells [10] = format: functional, cell-based; settings: HEK-CNG
Galanin receptor type 3 = biological target: T4, Galanin receptor type 3 (Homo sapiens, UniProt O60755); assay: Fluorescence-based cell-based primary high throughput dose response assay to identify antagonists of the Galanin Receptor 3 (GalR3).; format: functional
T4 sequence (O60755 whole entry): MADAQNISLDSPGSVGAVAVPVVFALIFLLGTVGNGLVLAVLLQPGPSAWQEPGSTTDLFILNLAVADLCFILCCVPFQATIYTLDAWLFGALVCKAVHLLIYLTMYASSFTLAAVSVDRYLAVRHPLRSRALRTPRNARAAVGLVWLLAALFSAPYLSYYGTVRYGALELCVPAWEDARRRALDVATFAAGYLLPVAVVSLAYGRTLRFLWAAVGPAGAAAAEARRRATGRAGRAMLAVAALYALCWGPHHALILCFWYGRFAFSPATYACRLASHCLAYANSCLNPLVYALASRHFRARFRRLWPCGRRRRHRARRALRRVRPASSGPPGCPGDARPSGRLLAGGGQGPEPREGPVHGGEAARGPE

[11] = HepG2 cell cytotoxicity, dose response, cytotoxicity control for Shn3 inhibitor project, CellTiter-Glo, cherry-picked (AID 624134); format: functional, cell-based
[12] = control 3'UTR Renilla luciferase suppression, dose response, counter-screen for Shn3 inhibitor project, cell-based, Clone20-Shn3RL, cherry-picked (AID 624133); format: functional
[13] = Shn3 3'UTR reporter inhibitors, dose response, cell-based, Clone20 osteoblasts, firefly luciferase, cherry-picked (AID 624132); format: functional;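 also: firefly luciferase luminescence from reporter carrying the Shn3 3'UTR in osteoblasts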
[14] = biological target: Photoreceptor-specific nuclear receptor (Homo sapiens, UniProt Q9Y5X4); format: functional, cell-based;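 also: CHO-S cells with Gal4-NCOR and VP16-NR2E3 two-hybrid luciferase reporter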
CAAX prenyl protease 2 = biological target: T5, CAAX prenyl protease 2 (Saccharomyces cerevisiae S288c, UniProt Q03530); format: biochemical
T5 sequence (Q03530 whole entry): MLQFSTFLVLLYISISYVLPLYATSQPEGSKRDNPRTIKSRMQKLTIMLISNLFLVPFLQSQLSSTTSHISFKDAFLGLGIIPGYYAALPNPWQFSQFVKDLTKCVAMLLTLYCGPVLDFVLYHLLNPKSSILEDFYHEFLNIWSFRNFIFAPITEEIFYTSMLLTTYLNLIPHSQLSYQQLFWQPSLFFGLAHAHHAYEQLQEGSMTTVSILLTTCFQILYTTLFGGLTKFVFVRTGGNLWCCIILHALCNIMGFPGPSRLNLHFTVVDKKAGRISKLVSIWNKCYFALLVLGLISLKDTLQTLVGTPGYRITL

[15] = biological target: T6, High affinity choline transporter 1 (Homo sapiens, UniProt Q9GZV3); assay: CHT inhibitors, dose response, cell-based, 10-point CRC, membrane potential dye (AID 588401); format: functional;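 also: membrane potential dye fluorescence of choline-evoked depolarization via CHT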
T6 sequence (Q9GZV3 whole entry): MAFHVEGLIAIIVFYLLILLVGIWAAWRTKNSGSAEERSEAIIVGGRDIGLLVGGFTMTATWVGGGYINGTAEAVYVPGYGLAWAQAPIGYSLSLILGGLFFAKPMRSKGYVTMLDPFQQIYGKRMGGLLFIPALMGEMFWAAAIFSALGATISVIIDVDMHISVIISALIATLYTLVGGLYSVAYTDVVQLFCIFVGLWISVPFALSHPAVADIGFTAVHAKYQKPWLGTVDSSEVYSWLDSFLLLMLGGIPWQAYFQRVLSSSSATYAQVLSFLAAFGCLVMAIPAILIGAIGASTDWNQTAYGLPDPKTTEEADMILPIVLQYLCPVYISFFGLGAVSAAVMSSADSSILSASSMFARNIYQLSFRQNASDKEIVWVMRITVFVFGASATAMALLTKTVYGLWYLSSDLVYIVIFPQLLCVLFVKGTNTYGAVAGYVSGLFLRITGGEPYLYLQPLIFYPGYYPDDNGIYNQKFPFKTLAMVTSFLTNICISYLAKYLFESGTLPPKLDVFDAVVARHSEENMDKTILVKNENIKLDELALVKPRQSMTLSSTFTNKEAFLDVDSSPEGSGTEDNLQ

[16] = biological target: T6, High affinity choline transporter 1; assay: CHT inhibitors, dose response, cell-based, 5-point CRC, membrane potential dye (AID 504840); format: functional
[17] = biological target: T7, Ubiquitin-conjugating enzyme E2 N (Homo sapiens, UniProt P61088); format: functional;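 also: Dose-response confirmation in a TR-FRET assay detecting UBC13-driven polyubiquitin chain formation, inhibition measured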
T7 sequence (P61088 whole entry): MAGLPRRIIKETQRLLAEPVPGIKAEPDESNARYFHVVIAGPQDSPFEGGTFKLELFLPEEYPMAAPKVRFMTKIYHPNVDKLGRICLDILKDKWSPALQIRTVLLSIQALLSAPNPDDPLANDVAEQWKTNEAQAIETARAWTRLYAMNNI

P388/ADR = assay: cells; format: functional; settings: Mus musculus
SN12K1 = assay: cells; format: functional; settings: Homo sapiens
P388 = assay: cells; format: functional; settings: Mus musculus

Chain of Steroidogenic factor 1 (Q13285 whole entry): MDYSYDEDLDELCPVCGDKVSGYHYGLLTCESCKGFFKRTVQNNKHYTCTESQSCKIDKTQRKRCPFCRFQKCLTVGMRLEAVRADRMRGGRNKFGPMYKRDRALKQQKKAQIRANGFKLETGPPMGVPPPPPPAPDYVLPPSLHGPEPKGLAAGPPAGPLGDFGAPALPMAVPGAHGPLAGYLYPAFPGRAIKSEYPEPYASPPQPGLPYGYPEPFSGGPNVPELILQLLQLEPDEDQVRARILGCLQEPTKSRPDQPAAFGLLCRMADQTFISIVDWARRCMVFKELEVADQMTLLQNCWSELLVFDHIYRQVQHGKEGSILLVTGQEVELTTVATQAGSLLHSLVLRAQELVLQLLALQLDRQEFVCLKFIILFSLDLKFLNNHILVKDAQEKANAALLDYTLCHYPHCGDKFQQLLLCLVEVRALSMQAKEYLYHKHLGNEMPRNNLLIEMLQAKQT
Chain of Nuclear receptor subfamily 5 group A member 2 (O00482 whole entry): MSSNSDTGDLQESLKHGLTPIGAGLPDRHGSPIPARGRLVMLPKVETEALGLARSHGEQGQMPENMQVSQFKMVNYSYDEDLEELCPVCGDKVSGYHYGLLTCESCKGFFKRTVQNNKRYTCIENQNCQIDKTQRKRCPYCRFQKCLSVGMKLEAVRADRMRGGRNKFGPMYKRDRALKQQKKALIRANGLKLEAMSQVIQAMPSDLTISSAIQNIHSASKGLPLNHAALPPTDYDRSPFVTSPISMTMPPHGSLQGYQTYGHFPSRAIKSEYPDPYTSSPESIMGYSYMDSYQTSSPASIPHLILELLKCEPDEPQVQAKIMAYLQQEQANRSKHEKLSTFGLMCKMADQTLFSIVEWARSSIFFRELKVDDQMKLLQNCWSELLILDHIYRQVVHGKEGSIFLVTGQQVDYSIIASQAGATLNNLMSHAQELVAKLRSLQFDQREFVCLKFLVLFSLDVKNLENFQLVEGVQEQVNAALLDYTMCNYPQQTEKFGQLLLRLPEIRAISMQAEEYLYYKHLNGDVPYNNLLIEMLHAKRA
Chain of Photoreceptor-specific nuclear receptor (Q9Y5X4 whole entry, the tested form may be a part): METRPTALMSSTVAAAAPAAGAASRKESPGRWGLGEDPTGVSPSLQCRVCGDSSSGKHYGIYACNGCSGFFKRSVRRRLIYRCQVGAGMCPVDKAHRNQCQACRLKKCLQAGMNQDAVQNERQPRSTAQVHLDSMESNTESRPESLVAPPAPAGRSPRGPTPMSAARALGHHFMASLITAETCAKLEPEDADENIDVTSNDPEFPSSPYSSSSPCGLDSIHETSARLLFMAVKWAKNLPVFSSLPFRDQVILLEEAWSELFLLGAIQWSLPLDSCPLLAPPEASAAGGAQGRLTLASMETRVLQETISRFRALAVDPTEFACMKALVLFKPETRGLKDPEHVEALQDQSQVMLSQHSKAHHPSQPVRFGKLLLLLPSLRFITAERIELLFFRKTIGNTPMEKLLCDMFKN
Chain of Cytochrome P450 2C9 (P11712 whole entry, the tested form may be a part): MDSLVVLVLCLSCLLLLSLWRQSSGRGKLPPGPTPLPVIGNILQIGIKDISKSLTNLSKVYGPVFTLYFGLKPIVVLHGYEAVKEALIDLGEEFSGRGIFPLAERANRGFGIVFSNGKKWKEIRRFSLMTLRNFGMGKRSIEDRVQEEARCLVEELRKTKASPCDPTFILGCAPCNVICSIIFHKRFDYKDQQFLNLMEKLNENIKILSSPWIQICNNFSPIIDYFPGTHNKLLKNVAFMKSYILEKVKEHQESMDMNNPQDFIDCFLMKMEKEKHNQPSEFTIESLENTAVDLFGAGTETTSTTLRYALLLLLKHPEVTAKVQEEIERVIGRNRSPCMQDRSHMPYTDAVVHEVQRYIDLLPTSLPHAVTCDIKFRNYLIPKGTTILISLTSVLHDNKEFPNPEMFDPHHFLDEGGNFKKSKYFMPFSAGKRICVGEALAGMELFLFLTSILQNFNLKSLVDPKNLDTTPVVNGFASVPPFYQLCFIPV

## CCCCCCC[C@@H](C/C=C/CCC(=O)N(C)C/C(=C/Cl)C/C(=C\C(=O)N1CC(OC)=CC1=O)OC)OC
[1]
  IC50: > 0.278 µM (active)
[2]
  AC50: 4.12 µM (active)
Cells [3]
  IC50: > 67.5 µM (inactive)

## CCNC(=O)NC(=O)COC(=O)c1ccccc1SCC(=O)NC(=O)NCC
[4]
  IC50: 0.969 µM (active)

## COc1cccc(NC(=O)[C@H](NC(=O)[C@@H]2Cc3ccccc3CN2)c2ccccc2)c1
[1]
  IC50: > 67.5 µM (inactive)
Cells [3]
  IC50: > 67.5 µM (inactive)

## O=C1CCN(CCc2ccccc2)CCN1[C@H](COc1ccccc1)c1ccccc1
Vero
  AC50: 21.8 µM (active)

## CCOc1ccc(NC(=O)COC(=O)COc2cccc3c2OC(C)(C)C3)cc1
[5]
  IC50: 15.5 µM (inactive)
Steroidogenic factor 1
  IC50: 2.55 µM (active)
[6]
  IC50: 35.9 µM (inactive)

## C=CCNc1nc(Nc2ccc(-c3nc4ccccc4o3)cc2)nc(N2CCOCC2)n1
[7]
  EC50: 43.5 µM (active)
[8]
  CC50: 27.3 µM (active)
[4]
  IC50: 0.213 µM (active)

## CC(C)(Oc1ccc(Cl)cc1)C(=O)OCC(=O)NCCc1ccccc1
[5]
  IC50: 5.98 µM (active)
Steroidogenic factor 1
  IC50: 6.16 µM (active)
[6]
  IC50: 35.9 µM (inactive)

## O=C1NC(=S)N/C1=C/c1cccc([N+](=O)[O-])c1O
Cytochrome P450 2C9
  AC50: 12.6 µM (inconclusive)
[9]
  IC50: 37.4 µM (inactive)

## CC(NCC#Cc1ccccc1)C(O)c1ccccc1 (centres undefined)
Cells [10]
  EC50: > 29.9 µM (inactive)
Galanin receptor type 3
  IC50: > 29.9 µM (inactive)

## CCN(CC)S(=O)(=O)c1cc(NC(=O)CNc2cccc(S(=O)(=O)N3CCOCC3)c2)ccc1C
Cells [10]
  EC50: > 29.9 µM (inactive)
Galanin receptor type 3
  IC50: 0.449 µM (active)
[11]
  AC50: 1.89 µM (active)
[12]
  AC50: 2.17 µM (active)
[13]
  AC50: 2.97 µM (active)

## COc1ccc(S(=O)(=O)N2CCCCC2)cc1N=C(S)Nc1ccccc1
[14]
  IC50: 1.22 µM (active)

## NC(=O)CCCn1c(C(=O)c2cc(Cl)c(N)c(Cl)c2)c2ccc(C(F)(F)F)cc2[n+]1[O-]
CAAX prenyl protease 2
  AC50: 3.5 µM (active)
[15]
  IC50: 4.22 µM (active)
[16]
  IC50: 4.47 µM (active)
[17]
  IC50: > 20 µM (inactive)

## CCC(C)NC(=O)c1ccc2c(c1)N(Cc1ccccc1)C(=O)CS2 (centres undefined)
[5]
  IC50: 16.3 µM (inactive)
Steroidogenic factor 1
  IC50: 5.68 µM (active)
[6]
  IC50: 35.9 µM (inactive)

## CCNc1cc(Cl)nc(SC)n1
[15]
  IC50: 1.79 µM (active)
[16]
  IC50: 4.88 µM (active)

## CCOC(=O)CC[C@H](NC(=O)Cn1cnc2c(OCc3ccccc3)ncnc21)C(=O)OCC
Vero
  AC50: 36 µM (active)

## COc1ccc(NC(=O)c2sc(=O)n(Cc3cccc(C(F)(F)F)c3)c2C)cc1OC
[14]
  IC50: 13.9 µM (inactive)

## C/C=C/C1=CC(=O)C(O)C1O (centres undefined)
P388/ADR
  GI50: 17.9 µM (inactive)
SN12K1
  GI50: 28.1 µM (inactive)
P388
  GI50: 15 µM (inactive)

## O=C1c2ccccc2/C(=C\c2ccc(Br)nc2)N1c1ccccc1
Vero
  AC50: 38.8 µM (active)

## O=c1oc2ccccc2cc1-c1ccccc1
[4]
  IC50: 2.78 µM (active)

## CNC(=O)[C@H]1O[C@@H](n2cnc3c(NCc4cccc(I)c4)ncnc32)[C@H](O)[C@@H]1O [IB-MECA]
[15]
  IC50: 1.83 µM (active)
[16]
  IC50: 2.37 µM (active)
